Assay results from patent publication US20150104868A1, “Methods of Maintaining and Improving Biological Cell Function and Activity” (GARGILL INCORPORATED, priority 2012, published 2015).

System: CRL 1730 HUVECs
Test: Microarray transcriptomics of HUVEC (HGERT/HG, HG/NG)
Format: cell-based, human
Conditions: HUVEC; 5 mM ERT + 30 mM glucose vs 30 mM glucose

With `OC[C@@H](O)[C@@H](O)CO` [ERT, meso-1,2,3,4-tetrahydroxybutane] the “HGERT/HG transcript DAP” value was “Ψ 1.01”, the “HGERT/HG transcript DBT” value was “Ψ 1.01” and the “HGERT/HG transcript DCAKD” value was “Ψ 1.03”. The “HGERT/HG transcript DDX54” value was 0.99 Ω, the “HGERT/HG transcript DYNLT1” value was 0.99 Ω and the “HGERT/HG transcript EID2” value was 0.99. The “HGERT/HG transcript ENG” value was “Ψ 1.01”, the “HGERT/HG transcript ESD” value was 0.99 Ω and the “HGERT/HG transcript FASTKD1” value was 0.99 Ω. The “HGERT/HG transcript FASTKD3” value was 0.99 Ω, the “HGERT/HG transcript FBLIM1” value was “Ψ 1.02” and the “HGERT/HG transcript FOXC1” value was “Ψ 1.01”. For the same compound, the “HGERT/HG transcript FURIN” value was “Ψ 1.02”, the “HGERT/HG transcript GJC1” value was “Ψ 1.02” and the “HGERT/HG transcript GNAI2” value was “Ψ 1.02”. The “HGERT/HG transcript GOLGA2” value was “Ψ 1.04”, the “HGERT/HG transcript GPR124” value was “Ψ 1.02” and the “HGERT/HG transcript GSN” value was “Ψ 1.03”. For the same compound, the “HGERT/HG transcript HADH” value was 0.99, the “HGERT/HG transcript HIATL1” value was 0.99 and the “HGERT/HG transcript HIG2” value was “Ψ 1.01”. The “HGERT/HG transcript HIP1” value was “Ψ 1.05”, the “HGERT/HG transcript HLTF” value was 0.99 Ω and the “HGERT/HG transcript HPCAL1” value was “Ψ 1.01”. For the same compound, the “HGERT/HG transcript HSPE1” value was 0.99 Ω, the “HGERT/HG transcript IFI6” value was “Ψ 1.13” and the “HGERT/HG transcript IFT20” value was 1.00 Ω. The “HGERT/HG transcript KIDINS220” value was “Ψ 1.01”, the “HGERT/HG transcript KIF1B” value was “Ψ 1.01” and the “HGERT/HG transcript LIMK1” value was “Ψ 1.01”. For the same compound, the “HGERT/HG transcript LUC7L2” value was 0.99, the “HGERT/HG transcript LYN” value was “Ψ 1.02” and the “HGERT/HG transcript MAGED1” value was 1.00 Ω. The “HGERT/HG transcript MAP4K3” value was 0.98 Ω, the “HGERT/HG transcript MARK2” value was “Ψ 1.03” and the “HGERT/HG transcript MBIP” value was 0.98. The “HGERT/HG transcript MFSOL” value was 0.99, the “HGERT/HG transcript MTM1” value was 0.98 and the “HGERT/HG transcript MYST4” value was “Ψ 1.03”. For the same compound, the “HGERT/HG transcript Magmas” value was 0.98, the “HGERT/HG transcript NAP8” value was 0.98 and the “HGERT/HG transcript NCK2” value was “Ψ 1.01”. The “HGERT/HG transcript NDE1” value was “Ψ 1.01”, the “HGERT/HG transcript NDUFA4” value was 0.99 and the “HGERT/HG transcript NOTCH1” value was “Ψ 1.02”. For the same compound, the “HGERT/HG transcript OTUD5” value was “Ψ 1.01”, the “HGERT/HG transcript OXCT1” value was 0.99 and the “HGERT/HG transcript PAQR3” value was 0.98 Ω. The “HGERT/HG transcript PDCD7” value was “Ψ 1.02”, the “HGERT/HG transcript PDIA5” value was “Ψ 1.01” and the “HGERT/HG transcript PHF16” value was 0.99. For the same compound, the “HGERT/HG transcript PITRM1” value was “Ψ 1.01”, the “HGERT/HG transcript PLCD4” value was 0.99 and the “HGERT/HG transcript PLEC1” value was “Ψ 1.03”. For the same compound, the “HGERT/HG transcript PLEK2” value was 0.96 Ω, the “HGERT/HG transcript PLEKHA3” value was 0.99 and the “HGERT/HG transcript PRRX1” value was “Ψ 1.01”. For the same compound, the “HGERT/HG transcript PXN” value was “Ψ 1.01”, the “HGERT/HG transcript RHOB” value was “Ψ 1.02” and the “HGERT/HG transcript RNF20” value was 0.99. For the same compound, the “HGERT/HG transcript RP2” value was 0.98 Ω, the “HGERT/HG transcript RPS6KA2” value was “Ψ 1.01” and the “HGERT/HG transcript RSU1” value was 0.99 Ω. For the same compound, the “HGERT/HG transcript SACM1L” value was 0.98, the “HGERT/HG transcript SAMHD1” value was “Ψ 1.07” and the “HGERT/HG transcript SAMM50” value was 0.99. The “HGERT/HG transcript SCFD1” value was 0.99, the “HGERT/HG transcript SDHC” value was 0.96 Ω and the “HGERT/HG transcript SDHD” value was 0.98 Ω. For the same compound, the “HGERT/HG transcript SEC31A” value was “Ψ 1.01”, the “HGERT/HG transcript SEC61G” value was 0.99 and the “HGERT/HG transcript SENP3” value was “Ψ 1.01”. The “HGERT/HG transcript SESTD1” value was “Ψ 1.01”, the “HGERT/HG transcript SETD3” value was 0.99 and the “HGERT/HG transcript SFT2D2” value was 0.98. The “HGERT/HG transcript SFXN4” value was 0.98, the “HGERT/HG transcript SH3PXD2B” value was “Ψ 1.01” and the “HGERT/HG transcript SLC2A12” value was “Ψ 1.03”. The “HGERT/HG transcript SLC25A24” value was 0.99 Ω, the “HGERT/HG transcript SLC25A43” value was 0.98 and the “HGERT/HG transcript SLC30A6” value was 0.99. The “HGERT/HG transcript SLC41A2” value was 0.99, the “HGERT/HG transcript SLK” value was 0.99 Ω and the “HGERT/HG transcript SMOX” value was 0.99 Ω. For the same compound, the “HGERT/HG transcript SNX3” value was 0.99, the “HGERT/HG transcript SNX14” value was 0.99 and the “HGERT/HG transcript SOAT1” value was 0.97 Ω. For the same compound, the “HGERT/HG transcript SOS1” value was “Ψ 1.06”, the “HGERT/HG transcript STK39” value was 0.98 Ω and the “HGERT/HG transcript STXBP3” value was 0.98. For the same compound, the “HGERT/HG transcript SUCLA2” value was 0.99 Ω, the “HGERT/HG transcript SUDS3” value was 0.99 and the “HGERT/HG transcript TACC1” value was “Ψ 1.01”. For the same compound, the “HGERT/HG transcript TCEAL1” value was 0.99 Ω, the “HGERT/HG transcript TCF12” value was 0.99 Ω and the “HGERT/HG transcript TGM2” value was “Ψ 1.01”. For the same compound, the “HGERT/HG transcript TIMM8B” value was 0.99, the “HGERT/HG transcript TIMP2” value was “Ψ 1.01” and the “HGERT/HG transcript TMEM14C” value was 0.99.
